# “Also recorded” adds a separate entry of the source. Like-named read-outs stand apart in the source and are kept apart here.
# Columns and labels:
# [1] = tested on: sporozoites / hepatocytes; settings: cited from earlier work
# [2] = tested on: P. falciparum Dd2 Cytb V259L; test: SYBR Green ABS proliferation assay, NCGC00473217 selected clone F06; type: cell-based, Plasmodium falciparum; settings: Plasmodium falciparum
# In short: (§1)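 Drug-selected Dd2 clones bearing the cytochrome b mutation were cultured at 37 °C under 5% CO2, 5% O2, 90% N2. Growth was read at 72 h by SYBR Green-I fluorescence, normalized to controls as percent response.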
# [3] = tested on: P. falciparum Dd2 (clone B2) asexual blood stage parasites; test: P. falciparum Dd2 asexual blood stage SYBR Green-I 72 h proliferation assay (qHTS); type: cell-based, Plasmodium falciparum
# [4] = Rat liver microsomal stability (RLMS); settings: for half-life: rat
# Protocol: (§2) Pharmacokinetic modeling experiments, parallel artificial membrane permeability assay (PAMPA), solubility, and rat liver microsome stability assessment were performed on all synthetic compounds, as previously described[73]–[75].
# [5] = tested on: P. falciparum Dd2 Cytb G131S; test: SYBR Green ABS proliferation assay, NCGC00374598 selected clone C11; type: cell-based, Plasmodium falciparum; settings: for AC50: Plasmodium falciparum
# In short: as §1
# [6] = tested on: luciferase-expressing P. berghei liver stage parasites in HepG2 cells; test: Inhibition of liver-stage development assay (ILSDA), Method 2 (WRAIR, 96-well); type: cell-based, Plasmodium berghei; settings: for AC50: Plasmodium berghei
# [7] = tested on: P. falciparum Dd2 Cytb A122D; test: SYBR Green ABS proliferation assay, NCGC00473217 selected clone F12; type: cell-based, Plasmodium falciparum; settings: Plasmodium falciparum
# In short: as §1
# [8] = tested on: P. falciparum Dd2 Cytb F123L; test: SYBR Green ABS proliferation assay, NCGC00473217 selected clone G08; type: cell-based, Plasmodium falciparum
# In short: as §1
# HepG2 cells = test: HepG2 mammalian toxicity, CellTiter-Glo, 48 h; settings: 48 h compound exposure
# [9] = HepG2 mammalian toxicity, CellTiter-Glo, 48 h; settings: human; for AC50 at 48 h: HepG2 cells, HepG2 AC50 (mammalian cellular toxicity), 48 h compound exposure
# [10] = Parallel artificial membrane permeability assay (PAMPA); type: in vitro ADME; settings: for PAMPA pH7.4: pH 7.4
# Protocol: as §2
# Aqueous solubility = type: physicochemical; settings: for solubility: aqueous media
# Protocol: as §2
# [11] = tested on: T1, Plasmodium falciparum Dd2 asexual blood stage parasites; test: microbe, parasite or virus in culture; set-up: species or system P. falciparum Dd2 in human erythrocytes; SYBR Green-I proliferation assay, P. falciparum Dd2 asexual blood stages, growth inhibition; settings: DD2, Erythrocyte, 72 h, SYBR Green-I
# T1 construct: Dd2 line, asexual blood stage
# Protocol: The P. falciparum parasite Dd2 line was cultured in vitro using standard conditions63. Briefly, parasites were maintained in 2% human O+ erythrocytes (Interstate Blood Bank, Memphis, TN) in RPMI-1640 medium (Life Technologies, Grand Island, NY) supplemented with 0.5% Albumax II (Life Technologies), 2 mM l-glutamine, 50 mg/L hypoxanthine, 25 mM HEPES, 0.225% NaHCO3, 24 mM sodium bicarbonate, and 10 μg/ml gentamycin. Tissue culture flasks and assay plates were incubated at 37 °C under a gas mixture of 5% CO2, 5% O2 and 90% N2. Methods for the SYBR Green-I qHTS, calculation of AC50 (50% of the normalized compound response relative to the maximum response), and definition of curve classes have been described30,64–66. qHTS assays were performed in a single replicate with a 7- to 11-point dose response format, and follow-up screens with 3–11 independent 11-point response assays. Significant differences were assessed using two-sided Student’s t-tests. All HTS assays were stopped and read at 72 h. Percent response values represent relative growth as judged by SYBR Green-I fluorescence intensity values normalized to controls. […] […]
# [12] = tested on: P. falciparum Dd2-B2 parasites; test: In vitro resistance selection under constant drug pressure; type: cell-based, Plasmodium falciparum; settings: for Recrudescence under pressure: 2 × 10^9 parasites, 5 × AC50 (NCGC00473217) or 3 × AC50 (NCGC00374598); for AC50 increase of selected clones: clones from selections with the same compound
# Protocol: Recently cloned P. falciparum Dd2-B2 parasites, cultured in duplicate flasks each harboring an inoculum of 2 × 10^9 parasites, were subjected to constant drug pressure from NCGC00473217 at 5 × AC50 or NCGC00374598 at 3 × AC50. […] Clones were then obtained by limiting dilution and three to four clones from each flask were expanded for profiling and sequencing.
# Fresh uninfected RBCs (0.5% hematocrit) were added on day 7 and media was changed every other day. […] Resistant parasites were maintained under drug media at a volume of 50 mL until a high parasitemia (> 5%) was achieved. Aliquots of the bulk resistant cultures were frozen in cryovials before cloning by limiting dilution in 96-well plates (seeded at 0.25 or 0.5 parasites/well)[70]. After 3 weeks of cloning, we screened for positive wells by flow cytometry with SYBR Green-stained cells. […] Parasites were harvested by saponin lysis at the trophozoite stage and genomic DNA was extracted using the QIAamp DNA Blood Midi Kit (Qiagen, Germantown, MD)[71].
# in vitro = settings: human, HepG2-A16-CD81EGFP cells, uninfected
# [13] = tested on: P. berghei-ANKA-GFP-LucCON liver stage parasites in HepG2-A16-CD81EGFP cells; test: P. berghei liver stage Pb-Luc assay, Method 1 (UCSD, 1536-well); type: cell-based, Plasmodium berghei; settings: Plasmodium berghei; for AC50: UCSD, read-out: liver stage AC50 (Method 1)
# [14] = DD2, NCGC00473217 selected clone F06, read-out: AC50 [μM], Cytb V259L (converted)
# [15] = DD2, NCGC00473217 selected clone, read-out: AC50 Log[M] ± SD, Cytb V259L (converted)
# [16] = Plasmodium falciparum, DD2, 72 h, SYBR Green 72 h, WT Dd2-B2, read-out: AC50 Log[M] ± SD, Dd2-B2 (parental line) (converted)
# [17] = Plasmodium falciparum, DD2, 72 h, SYBR Green 72 h, approximate value in μM, read-out: AC50 [μM], Dd2-B2 (parental line) (converted)
# [18] = SYBR Green 72 h, approximate value in μM
# [19] = DD2, NCGC00374598 selected clone C11, read-out: AC50 [μM], Cytb G131S (converted)
# [20] = DD2, NCGC00374598 selected clone, read-out: AC50 Log[M] ± SD, Cytb G131S (converted)
# [21] = HepG2, 48 h, 48 h, firefly luciferase reporter P. berghei line, read-out: ILSDA AC50
# [22] = HepG2, 48 h, 48 h, read-out: ILSDA AC50 (Method 2)
# [23] = DD2, NCGC00473217 selected clone F12, read-out: AC50 [μM], Cytb A122D (converted)
# [24] = DD2, NCGC00473217 selected clone, read-out: AC50 Log[M] ± SD, Cytb A122D (converted)
# [25] = Plasmodium falciparum, DD2, NCGC00473217 selected clone G08, highest concentration 29 µM, read-out: AC50 [μM], Cytb F123L (converted)
# [26] = Plasmodium falciparum, DD2, NCGC00473217 selected clone, read-out: AC50 Log[M] ± SD, Cytb F123L (converted)
# [27] = DD2, Suppl Table 6, read-out: AC50 (mM), Dd2 Cytb V259L
# [28] = DD2, Suppl Table 6, read-out: AC50 (mM), Dd2 Cytb G131S
# [29] = DD2, Suppl Table 6, read-out: AC50 (mM), Dd2 Cytb A122D
# [30] = Plasmodium falciparum, DD2, Suppl Table 6, read-out: AC50 (mM), Dd2 Cytb F123L
Structure (SMILES),"AC50 [2, 14]","AC50 [2, 15]","AC50 [3, 16]","AC50 [3, 17]",half-life ([4]; rat liver microsomes),"AC50 [5, 19]","AC50 [5, 20]","AC50 [6, 21]","AC50 [7, 23]","AC50 [7, 24]","AC50 [8, 25]","AC50 [8, 26]",HepG2 AC50 (mammalian cellular toxicity) (HepG2 cells),PAMPA pH7.4 [10],solubility (Aqueous solubility),also measured
CC(C)(CN)c1nc(-c2ccc(Cl)c(O)c2)c(-c2ccncc2)[nH]1 [MMV030084],–,–,–,–,–,–,–,–,–,–,–,–,–,–,–,IC50 ([1]; added 2 h post sporozoite addition): > 10 µM; IC50 ([1]; pre-treat hepatocytes 4 h prior to adding sporozoites): 0.199 µM
CCCN1C(c2ccccc2)=NS(=O)(=O)c2cc(NC(=O)c3ccc(F)cc3)ccc21 [NCGC00532331],2.33 µM,2.34 µM,8.91e-07 M,8.94e-07 M,> 30 min,0.71 µM,0.708 µM,0.048 µM,1.85 µM,1.86 µM,3.3 µM,3.31 µM,Neither compound was cytotoxic,896 1e-6 cm/s,< 1 µg/mL,"AC50 [μM], Dd2-B2 (parental line) [3, 18]: sub-micromolar; RLMS T1/2 ([4]; rat liver microsomes): favorable; AC50 [μM], Cytb G131S ([5]; NCGC00374598 selected clone C11): maintained potency; AC50 [6, 22]: < 0.05 µM; AC50 at 48 h [9]: > 20 µM; PAMPA permeability [10]: good PAMPA permeability; also recorded: favorable; Aqueous Solubility (Aqueous solubility): poor aqueous solubility"
CCCN1C(c2ccccc2)=NS(=O)(=O)c2cc(NC(=O)c3cccs3)ccc21 [NCGC00532332],4.31 µM,4.27 µM,5.89e-07 M,5.86e-07 M,22.6 min,0.861 µM,0.851 µM,0.039 µM,1.5 µM,1.51 µM,2 µM,2 µM,Neither compound was cytotoxic,714 1e-6 cm/s,< 1 µg/mL,"AC50 [μM], Dd2-B2 (parental line) [3, 18]: sub-micromolar; RLMS T1/2 ([4]; rat liver microsomes): favorable; AC50 [6, 22]: < 0.05 µM; AC50 at 48 h [9]: > 20 µM; PAMPA permeability [10]: high permeability; also recorded: favorable; Aqueous Solubility (Aqueous solubility): poor aqueous solubility"
CNC(=O)Oc1cccc(-c2cn3cc(OC(=O)NC)ccc3n2)c1 [MLS000700241-01],–,–,–,–,–,–,–,–,–,–,–,–,–,–,–,AC50 [11]: > 28 µM
CCCN1C(CC(C)C)=NS(=O)(=O)c2cc(NC(=O)c3cccs3)ccc21 [NCGC00473217],1.18 µM,1.17 µM,2.19e-07 M,2.19e-07 M,5 min,0.68 µM,0.676 µM,0.112 µM,2.82 µM,2.82 µM,> 29 µM,–,–,222 1e-6 cm/s,< 1 µg/mL,"AC50 [2, 27]: 1.18 µM; Recrudescence under pressure [12]: 14 to 17 days; AC50 increase of selected clones [12]: 10 to 60 fold; AC50 [5, 28]: 0.676 µM; Activity direction (Decrease / Inactive) ([6]; P. berghei liver stage, Method 2, dose response): Decrease; AC50 ([6]; HepG2, P. berghei liver stage, Method 2, dose response, read-out: Log AC50 (converted)): 0.112 µM; AC50 [7, 29]: 2.82 µM; AC50 [μM], Cytb F123L ([8]; NCGC00473217 selected clone G08, highest concentration 29 µM): greater than the maximum concentration tested; AC50 ([8]; NCGC00473217 selected clone G08, highest concentration 29 µM, read-out: AC50 [μM], Cytb F123L (converted)): > 29 µM; AC50 [8, 30]: > 29 µM; IC50 shift, F123L clone ([8]; versus parental): > 500 fold; viability at 66 h (in vitro): 106%; AC50 [13]: 0.003 µM; inhibition at 1 µM [13]: > 90%; inhibition at 3 µM [13]: > 95%"
COc1cc(Cc2cnc(N)nc2N)cc(OC)c1OC [NCGC00016055-05],–,–,–,–,–,–,–,–,–,–,–,–,–,–,–,AC50 [11]: > 28 µM
CC(=O)Nc1ccc(CN2CCc3nc(C(C)C)nc(-c4ccc(Cl)cc4)c3CC2)cc1 [NCGC00374598],–,2.82 µM,1.58e-06 M,1.5e-06 M,–,–,3.47 µM,–,–,2.09 µM,–,0.389 µM,no apparent toxicity,–,–,"AC50 [2, 27]: 2.82 µM; Recrudescence under pressure [12]: 36 days; AC50 increase of selected clones [12]: threefold increase; AC50 ([3]; Plasmodium falciparum, DD2, Suppl Table 6, read-out: AC50 (mM), WT (Dd2-B2)): 1.51e-06 M; AC50 ([3]; SYBR Green 72 h, approximate value in μM, read-out: AC50 [μM], Dd2-B2 (parental line) (converted)): 1.51e-06 M; half-life ([4]; microsomes): 4 min; AC50 [5, 28]: 3.47 µM; Max Resp (signal direction of the dose response) ([6]; Method 2, Decrease = decreasing P. berghei viability with dose, Increase = increasing signal, Inactive = no dose response): Inactive; AC50 ([6]; HepG2, mean, read-out: liver stage AC50 (Method 2)): 0.5 µM; AC50 [7, 29]: 2.09 µM; AC50 [8, 30]: 0.389 µM; AC50 [13]: 0.71 µM; inhibition at 1 µM [13]: > 60%; inhibition at 3 µM [13]: > 90%; AC50 [9]: > 20 µM"
